Data from ChEMBL document CHEMBL1201862, “PubChem BioAssay data set” (2004).
Calls of active or inactive are those of the source.

Columns and labels:
Assay type in all cases: functional
[1] = target: ALK tyrosine kinase receptor (Homo sapiens, UniProt Q9UM73);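 also: ALK tested as one member of a kinase panel screen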
[2] = target: Cyclin-dependent kinase 19 (Homo sapiens, UniProt Q9BWU1); test: Navigating the Kinome. Panel member name: CDC2L6
[3] = target: T1, V-type proton ATPase subunit c' (Saccharomyces cerevisiae S288c, UniProt P32842); test: Dose Response with BCECF Assay for V-ATPase inhibitors that increase vacuolar pH, Powder Set 1.; settings: read-out: EC50_MICROM
T1 sequence (P32842 whole entry): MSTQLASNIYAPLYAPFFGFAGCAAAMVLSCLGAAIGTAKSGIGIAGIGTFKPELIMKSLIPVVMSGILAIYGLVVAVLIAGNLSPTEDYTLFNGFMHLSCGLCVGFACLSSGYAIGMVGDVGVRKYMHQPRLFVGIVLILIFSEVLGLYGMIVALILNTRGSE

[4] = target: T1, V-type proton ATPase subunit c'; test: Dose Response of Small Molecules that Regulate V-ATPase Proton Transport in Yeast using pHLuorin, Powder Set1.; settings: read-out: EC50_MICROM
[5] = target: Serine/threonine-protein kinase pim-1 (Homo sapiens, UniProt P11309)
Serine/threonine-protein kinase pim-1, sequence (P11309 whole entry): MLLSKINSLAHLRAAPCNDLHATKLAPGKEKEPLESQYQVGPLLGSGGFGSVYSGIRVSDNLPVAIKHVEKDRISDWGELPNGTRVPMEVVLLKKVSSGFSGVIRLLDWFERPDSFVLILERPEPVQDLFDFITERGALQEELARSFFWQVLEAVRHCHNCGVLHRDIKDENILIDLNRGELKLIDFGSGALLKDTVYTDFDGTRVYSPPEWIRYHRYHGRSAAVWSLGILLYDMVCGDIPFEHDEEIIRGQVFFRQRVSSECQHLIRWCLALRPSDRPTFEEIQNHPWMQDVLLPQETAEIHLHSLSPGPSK

[6] = target: Cell division cycle 7-related protein kinase (Homo sapiens, UniProt O00311);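 also: value obtained from a kinome-wide kinase panel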
[7] = target: Homeodomain-interacting protein kinase 2 (Homo sapiens, UniProt Q9H2X6);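 also: measured within a kinome-wide kinase profiling panel, HIPK2 being one panel member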
[8] = target: Interleukin-1 receptor-associated kinase 4 (Homo sapiens, UniProt Q9NWZ3)
Interleukin-1 receptor-associated kinase 4, sequence (Q9NWZ3 whole entry): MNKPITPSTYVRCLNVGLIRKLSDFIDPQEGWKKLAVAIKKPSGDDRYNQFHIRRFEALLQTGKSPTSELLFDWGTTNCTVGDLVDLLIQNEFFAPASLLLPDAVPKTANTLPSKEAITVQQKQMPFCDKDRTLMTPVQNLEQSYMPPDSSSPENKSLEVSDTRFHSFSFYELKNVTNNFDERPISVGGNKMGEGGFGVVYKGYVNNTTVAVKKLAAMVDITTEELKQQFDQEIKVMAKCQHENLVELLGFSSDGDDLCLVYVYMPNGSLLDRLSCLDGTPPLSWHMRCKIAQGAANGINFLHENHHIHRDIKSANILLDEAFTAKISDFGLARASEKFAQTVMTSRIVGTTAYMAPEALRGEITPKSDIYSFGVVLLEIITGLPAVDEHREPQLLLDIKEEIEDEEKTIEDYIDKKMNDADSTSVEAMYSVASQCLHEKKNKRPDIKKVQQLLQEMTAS

[9] = target: Glycogen synthase kinase-3 beta (Homo sapiens, UniProt P49841);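 also: value comes from a broad kinome profiling panel, with GSK3B as the panel member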
Glycogen synthase kinase-3 beta, sequence (P49841 whole entry): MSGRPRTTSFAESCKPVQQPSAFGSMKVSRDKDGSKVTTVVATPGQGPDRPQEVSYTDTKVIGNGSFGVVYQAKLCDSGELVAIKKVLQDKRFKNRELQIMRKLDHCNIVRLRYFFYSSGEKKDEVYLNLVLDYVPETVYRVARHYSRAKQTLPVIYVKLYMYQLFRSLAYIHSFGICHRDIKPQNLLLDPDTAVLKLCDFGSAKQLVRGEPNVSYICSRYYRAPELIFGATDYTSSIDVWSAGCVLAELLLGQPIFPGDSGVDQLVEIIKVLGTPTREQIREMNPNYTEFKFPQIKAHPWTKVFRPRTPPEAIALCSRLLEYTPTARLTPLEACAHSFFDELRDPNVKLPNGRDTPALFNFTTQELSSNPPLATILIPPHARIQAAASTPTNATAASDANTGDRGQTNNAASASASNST

[10] = target: cAMP-dependent protein kinase catalytic subunit alpha (Homo sapiens, UniProt P17612)
[11] = target: Dual specificity protein kinase CLK4 (Homo sapiens, UniProt Q9HAZ1)
Dual specificity protein kinase CLK4, sequence (Q9HAZ1 whole entry): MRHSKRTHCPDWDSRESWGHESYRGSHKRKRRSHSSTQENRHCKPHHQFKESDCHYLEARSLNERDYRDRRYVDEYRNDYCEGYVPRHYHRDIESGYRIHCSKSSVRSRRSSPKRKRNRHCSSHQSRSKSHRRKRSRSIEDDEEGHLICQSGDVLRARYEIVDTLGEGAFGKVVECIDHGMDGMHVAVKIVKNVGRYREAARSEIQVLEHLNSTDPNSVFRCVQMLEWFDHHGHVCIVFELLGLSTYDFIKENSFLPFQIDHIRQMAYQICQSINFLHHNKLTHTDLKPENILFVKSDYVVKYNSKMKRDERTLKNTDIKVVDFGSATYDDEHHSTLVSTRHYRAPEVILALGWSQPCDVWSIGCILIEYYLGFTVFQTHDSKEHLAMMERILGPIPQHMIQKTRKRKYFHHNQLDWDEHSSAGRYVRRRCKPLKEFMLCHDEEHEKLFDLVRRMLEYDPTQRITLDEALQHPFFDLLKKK

[12] = target: Mitogen-activated protein kinase kinase kinase kinase 4 (Homo sapiens, UniProt O95819)
Aurora kinase B = Aurora kinase B (Homo sapiens, UniProt Q96GD4)
[13] = target: Serine/threonine-protein kinase BRSK1 (Homo sapiens, UniProt Q8TDC3);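 also: measured within a kinome-wide kinase panel, with the target listed as KIAA1811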
Serine/threonine-protein kinase BRSK1, sequence (Q8TDC3 whole entry): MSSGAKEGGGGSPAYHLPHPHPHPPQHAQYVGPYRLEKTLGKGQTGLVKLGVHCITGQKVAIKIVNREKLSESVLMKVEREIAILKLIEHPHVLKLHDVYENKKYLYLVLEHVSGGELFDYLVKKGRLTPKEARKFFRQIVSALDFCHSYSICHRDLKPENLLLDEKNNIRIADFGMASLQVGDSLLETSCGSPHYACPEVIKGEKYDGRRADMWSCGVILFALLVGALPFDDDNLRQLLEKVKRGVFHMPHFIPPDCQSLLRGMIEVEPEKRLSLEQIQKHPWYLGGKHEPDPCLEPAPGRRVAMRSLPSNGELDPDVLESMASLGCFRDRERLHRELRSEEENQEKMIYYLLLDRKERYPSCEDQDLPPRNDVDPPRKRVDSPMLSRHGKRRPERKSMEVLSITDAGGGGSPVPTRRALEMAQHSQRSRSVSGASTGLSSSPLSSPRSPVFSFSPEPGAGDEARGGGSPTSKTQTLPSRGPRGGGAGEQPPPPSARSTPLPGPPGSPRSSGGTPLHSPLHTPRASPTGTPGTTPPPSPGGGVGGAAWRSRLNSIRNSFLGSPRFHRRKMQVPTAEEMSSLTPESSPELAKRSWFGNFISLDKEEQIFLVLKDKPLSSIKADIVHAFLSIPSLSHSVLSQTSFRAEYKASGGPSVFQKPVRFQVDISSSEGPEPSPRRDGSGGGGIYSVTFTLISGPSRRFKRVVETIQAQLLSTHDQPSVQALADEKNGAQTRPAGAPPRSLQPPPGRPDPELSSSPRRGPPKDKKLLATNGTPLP

Cyclin-dependent kinase 19, sequence (Q9BWU1 whole entry): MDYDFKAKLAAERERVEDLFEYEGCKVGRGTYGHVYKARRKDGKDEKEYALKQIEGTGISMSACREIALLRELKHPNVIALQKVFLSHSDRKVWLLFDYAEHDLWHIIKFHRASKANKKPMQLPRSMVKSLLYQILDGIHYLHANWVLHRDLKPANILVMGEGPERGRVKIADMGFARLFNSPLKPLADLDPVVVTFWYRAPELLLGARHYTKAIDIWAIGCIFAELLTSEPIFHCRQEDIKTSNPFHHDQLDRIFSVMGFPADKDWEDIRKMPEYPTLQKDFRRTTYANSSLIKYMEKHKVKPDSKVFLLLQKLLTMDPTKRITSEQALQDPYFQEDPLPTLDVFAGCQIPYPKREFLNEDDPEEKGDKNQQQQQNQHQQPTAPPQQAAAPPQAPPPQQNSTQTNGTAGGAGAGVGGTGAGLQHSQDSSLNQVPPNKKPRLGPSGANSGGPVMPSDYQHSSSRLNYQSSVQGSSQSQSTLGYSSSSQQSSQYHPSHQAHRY
ALK tyrosine kinase receptor, sequence (Q9UM73 whole entry): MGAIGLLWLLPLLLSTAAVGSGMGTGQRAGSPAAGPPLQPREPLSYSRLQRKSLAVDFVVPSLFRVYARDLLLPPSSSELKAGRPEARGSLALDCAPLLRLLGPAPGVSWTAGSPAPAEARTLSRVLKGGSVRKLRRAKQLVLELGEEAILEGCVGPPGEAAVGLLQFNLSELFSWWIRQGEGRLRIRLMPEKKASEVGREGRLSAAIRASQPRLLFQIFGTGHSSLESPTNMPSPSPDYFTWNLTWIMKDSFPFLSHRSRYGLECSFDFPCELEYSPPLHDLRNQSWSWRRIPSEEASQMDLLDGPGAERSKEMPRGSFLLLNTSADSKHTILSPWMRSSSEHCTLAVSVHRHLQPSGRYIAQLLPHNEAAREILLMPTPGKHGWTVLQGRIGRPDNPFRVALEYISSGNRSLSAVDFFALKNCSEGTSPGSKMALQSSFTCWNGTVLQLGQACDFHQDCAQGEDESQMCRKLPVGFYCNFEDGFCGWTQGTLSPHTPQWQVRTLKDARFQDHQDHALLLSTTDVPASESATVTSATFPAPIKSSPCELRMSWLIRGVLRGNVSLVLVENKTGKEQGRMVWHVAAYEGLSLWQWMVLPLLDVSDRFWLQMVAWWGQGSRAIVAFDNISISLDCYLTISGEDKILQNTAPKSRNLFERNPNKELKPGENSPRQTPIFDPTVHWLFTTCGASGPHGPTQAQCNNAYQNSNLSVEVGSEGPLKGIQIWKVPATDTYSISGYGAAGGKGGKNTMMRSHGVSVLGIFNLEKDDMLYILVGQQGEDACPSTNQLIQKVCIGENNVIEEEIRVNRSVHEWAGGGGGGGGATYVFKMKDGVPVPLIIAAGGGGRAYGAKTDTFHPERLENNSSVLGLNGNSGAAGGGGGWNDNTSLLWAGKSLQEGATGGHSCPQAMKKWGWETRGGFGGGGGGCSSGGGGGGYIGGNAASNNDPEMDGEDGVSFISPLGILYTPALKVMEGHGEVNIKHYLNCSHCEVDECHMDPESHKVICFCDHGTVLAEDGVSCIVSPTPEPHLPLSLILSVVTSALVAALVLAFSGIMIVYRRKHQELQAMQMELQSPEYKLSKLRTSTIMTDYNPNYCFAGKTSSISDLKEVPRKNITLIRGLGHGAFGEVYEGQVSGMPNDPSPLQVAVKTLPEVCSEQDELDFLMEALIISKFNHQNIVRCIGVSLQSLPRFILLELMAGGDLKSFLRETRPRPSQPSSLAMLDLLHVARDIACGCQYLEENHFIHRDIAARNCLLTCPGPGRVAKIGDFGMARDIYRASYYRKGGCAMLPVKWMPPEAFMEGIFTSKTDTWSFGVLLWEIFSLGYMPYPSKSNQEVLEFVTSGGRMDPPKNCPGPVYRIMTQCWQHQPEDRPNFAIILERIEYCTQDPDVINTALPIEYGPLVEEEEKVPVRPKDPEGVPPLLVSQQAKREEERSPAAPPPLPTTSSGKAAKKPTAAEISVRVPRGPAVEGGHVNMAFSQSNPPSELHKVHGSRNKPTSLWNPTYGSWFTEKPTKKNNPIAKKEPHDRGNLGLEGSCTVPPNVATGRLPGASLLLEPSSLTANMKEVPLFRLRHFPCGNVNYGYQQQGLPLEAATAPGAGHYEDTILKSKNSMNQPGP

Q: Which Ki [1] does the source give for `CCNC(=O)c1cnc(N)c2c(-c3ccc(NC(=O)Nc4cccc(Cl)c4)cc3)csc12` here?
A: 0.158 µM (active)

Q: What about the Ki [2] of the same compound?
A: > 100 µM (inactive)

Q: Which results are given for `O=C(c1ccc([N+](=O)[O-])o1)N1CCN(c2ccc(C(F)(F)F)cn2)CC1`?
A: EC50 [3]: 1.59 µM (active); EC50 [4]: 9.82 µM (active)

Q: Which results are given for `COc1ccccc1C(=O)Nc1n[nH]c2ccc(-c3cn(Cc4ccccc4)nn3)cc12`?
A: Ki [5]: 0.501 µM (active); Ki [6]: 0.00398 µM (active); Ki [7]: 0.02 µM (active); Ki [8]: > 10 µM (inactive); Ki [9]: 0.00501 µM (active); Ki [10]: > 7.94 µM (inactive); Ki [11]: 0.00398 µM (active); Ki [12]: 0.0794 µM (active)

Q: For `CCc1cccc2c1n(CC)c(=N)n2CC(=O)c1ccc(Br)cc1`, which Ki (Aurora kinase B) is on record?
A: 2.51 µM (active)

Q: And the Ki [13]?
A: 2 µM (active)
